Values joined by “and” are separate entries in the source; they are usually repeats but may differ in a detail not shown here. Equal values may be shown once. Inconclusive results and toxic doses are left out. Cut-off read from the data, not from the text of the source: active = T/C of 150% or more; inactive = T/C below 125%.
Test system: L1210 leukemia ip in BDF1 mice, survival T/C
Assay: NCI In Vivo Anticancer Drug Screen. Data for tumor model L1210 Leukemia (intraperitoneal) in B6D2F1 (BDF1) mice
Details: endpoint: mean survival time, higher = longer survival
In short: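 Ratio derived from survival: compound-dosed mice over vehicle-dosed mice, all bearing a transplantable tumor.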

[1] = dose: 50.0 mg/kg/injection, schedule: Q01DX009 (ip), vehicle: saline
[2] = dose: 100.0 mg/kg/injection, schedule: Q01DX009 (ip), vehicle: saline
[3] = dose: 100.0 mg/kg/injection, schedule: Q04DX003 (ip), vehicle: saline
[4] = dose: 200.0 mg/kg/injection, schedule: Q01DX009 (ip), vehicle: saline
[5] = dose: 200.0 mg/kg/injection, schedule: Q04DX003 (ip), vehicle: saline
[6] = dose: 400.0 mg/kg/injection, schedule: Q01DX009 (ip), vehicle: saline
[7] = dose: 400.0 mg/kg/injection, schedule: Q04DX003 (ip), vehicle: saline
[8] = dose: 100.0 mg/kg/injection, schedule: Q01DX009 (ip), vehicle: saline with Tween-80
[9] = dose: 200.0 mg/kg/injection, schedule: Q01DX009 (ip), vehicle: saline with Tween-80
[10] = dose: 400.0 mg/kg/injection, schedule: Q01DX009 (ip), vehicle: saline with Tween-80
[11] = dose: 100.0 mg/kg/injection, schedule: Q01DX001 (ip), vehicle: other
[12] = dose: 200.0 mg/kg/injection, schedule: Q01DX001 (ip), vehicle: other
[13] = dose: 400.0 mg/kg/injection, schedule: Q01DX001 (ip), vehicle: other
[14] = dose: 100.0 mg/kg/injection, schedule: Q01DX009 (ip), vehicle: Klucel (hydroxypropylcellulose) (HPC)
[15] = dose: 200.0 mg/kg/injection, schedule: Q01DX009 (ip), vehicle: Klucel (hydroxypropylcellulose) (HPC)
[16] = dose: 400.0 mg/kg/injection, schedule: Q01DX009 (ip), vehicle: Klucel (hydroxypropylcellulose) (HPC)
[17] = dose: 100.0 mg/kg/injection, schedule: Q04DX002 (ip), vehicle: saline with Tween-80
[18] = dose: 200.0 mg/kg/injection, schedule: Q04DX002 (ip), vehicle: saline with Tween-80
[19] = dose: 400.0 mg/kg/injection, schedule: Q04DX002 (ip), vehicle: saline with Tween-80
[20] = dose: 25.0 mg/kg/injection, schedule: Q01DX009 (ip), vehicle: saline
[21] = dose: 100.0 mg/kg/injection, schedule: Q04DX003 (ip), vehicle: saline with Tween-80
[22] = dose: 200.0 mg/kg/injection, schedule: Q04DX003 (ip), vehicle: saline with Tween-80
[23] = dose: 400.0 mg/kg/injection, schedule: Q04DX003 (ip), vehicle: saline with Tween-80
[24] = dose: 100.0 mg/kg/injection, schedule: Q01DX001 (ip), vehicle: Klucel (hydroxypropylcellulose) (HPC)
[25] = dose: 200.0 mg/kg/injection, schedule: Q01DX001 (ip), vehicle: Klucel (hydroxypropylcellulose) (HPC)
[26] = dose: 100.0 mg/kg/injection, schedule: Q01DX001 (ip), vehicle: saline
[27] = dose: 100.0 mg/kg/injection, schedule: Q04DX003 (ip), vehicle: Klucel (hydroxypropylcellulose) (HPC)
[28] = dose: 200.0 mg/kg/injection, schedule: Q04DX003 (ip), vehicle: Klucel (hydroxypropylcellulose) (HPC)
[29] = dose: 400.0 mg/kg/injection, schedule: Q04DX003 (ip), vehicle: Klucel (hydroxypropylcellulose) (HPC)

Measured: T/C

Cc1nc2ccc(O)cc2cc1CO
inactive: [1] 100 % of control | [2] 87 % of control | [3] 104 % of control | [4] 89 % of control | [5] 103 % of control | [6] 113 % of control | [7] 109 % of control

CCOC(=O)C(OCc1ccccc1)(C(=O)N1CCCCCC1=O)C(C)C (stereo not given)
inactive: [8] 90 % of control | [9] 90 % of control | [10] 100 % of control

CCOC(=O)c1cc2cc(CC)ccc2[nH]1
inactive: [11] 102 % of control | [12] 95 % of control | [13] 95 % of control

CN(C)S(=O)(=O)c1ccc(NC(=O)CCl)cc1
inactive: [11] 98 % of control | [8] 106 % of control | dose: 100.0 mg/kg/injection, schedule: Q04DX003 (ip), vehicle: other 97 % of control | [12] 110 % of control | [9] 102 % of control | dose: 200.0 mg/kg/injection, schedule: Q04DX003 (ip), vehicle: other 103 % of control | [13] 93 % of control | [10] 100 % of control | dose: 400.0 mg/kg/injection, schedule: Q04DX003 (ip), vehicle: other 98 % of control

COc1ccc(Cl)cc1NC(=O)Nc1ccc(F)c([N+](=O)[O-])c1
inactive: [14] 106 % of control | [15] 104 % of control | [16] 102 % of control

COc1ccc2c(c1)c(Cl)c1ccc(Cl)cc1[n+]2[O-]
inactive: [17] 91 % of control | [18] 95 % of control | [19] 107 % of control

COc1cc(C(=O)N2CCN(c3ccccc3)CC2)c2ccccc2n1
inactive: [11] 98 % of control | [12] 112 % of control | [13] 101 % of control

CCCCCCCCCCCCCCCCCC1=NCCN1CCN
inactive: [20] 111 % of control | dose: 25.0 mg/kg/injection, schedule: Q04DX003 (ip), vehicle: saline 97 % of control | [1] 97 % of control | dose: 50.0 mg/kg/injection, schedule: Q04DX003 (ip), vehicle: saline 92 % of control | dose: 100.0 mg/kg/injection, schedule: Q01DX001 (ip), vehicle: acetone 100 % of control | [3] 101 % of control

COc1ccc(OC)c(/C=N/NC(=O)CCCCCCCCC(=O)N/N=C/c2cc(OC)ccc2OC)c1
inactive: dose: 100.0 mg/kg/injection, schedule: Q01DX001 (ip), vehicle: saline with Tween-80 90 % of control | [8] 101 % of control and 106 % of control | [17] 94 % of control and 108 % of control | [3] 92 % of control | dose: 200.0 mg/kg/injection, schedule: Q01DX001 (ip), vehicle: saline with Tween-80 92 % of control | [9] 97 % of control and 90 % of control | [18] 95 % of control and 90 % of control | [5] 92 % of control | dose: 400.0 mg/kg/injection, schedule: Q01DX001 (ip), vehicle: saline with Tween-80 87 % of control | [10] 94 % of control | [19] 86 % of control | [7] 87 % of control

Cc1ccc(S(=O)(=O)/C=C(/I)c2ccccc2)cc1
inactive: [8] 104 % of control | [21] 95 % of control | [9] 100 % of control | [22] 92 % of control | [10] 94 % of control | [23] 104 % of control

Cc1cccc(NC(=S)NCCc2ccccn2)c1
inactive: [17] 97 % of control | [18] 97 % of control

CCOC(=O)C(=O)Nc1ccccc1C(=O)O
inactive: dose: 100.0 mg/kg/injection, schedule: Q04DX009 (ip), vehicle: saline with Tween-80 96 % of control | dose: 200.0 mg/kg/injection, schedule: Q04DX009 (ip), vehicle: saline with Tween-80 103 % of control | dose: 400.0 mg/kg/injection, schedule: Q04DX009 (ip), vehicle: saline with Tween-80 102 % of control

Nc1cccc(-c2ccccc2)c1
inactive: [24] 92 % of control | [25] 90 % of control

COC(=O)c1cc(N)ccc1Br
inactive: dose: 100.0 mg/kg/injection, schedule: Q04DX003 (sc), vehicle: olive oil, sesame oil, peanut oil 93 % of control | dose: 200.0 mg/kg/injection, schedule: Q04DX003 (sc), vehicle: olive oil, sesame oil, peanut oil 111 % of control | dose: 400.0 mg/kg/injection, schedule: Q04DX003 (sc), vehicle: olive oil, sesame oil, peanut oil 95 % of control

CCCCC(=O)N/N=C/c1c(O)ccc2ccccc12
inactive: [26] 94 % of control | dose: 200.0 mg/kg/injection, schedule: Q01DX001 (ip), vehicle: saline 94 % of control | dose: 400.0 mg/kg/injection, schedule: Q01DX001 (ip), vehicle: saline 92 % of control

Cc1ccncc1C#N
inactive: dose: 6.0 mg/kg/injection, schedule: Q04DX003 (ip), vehicle: saline 98 % of control | dose: 12.0 mg/kg/injection, schedule: Q04DX003 (ip), vehicle: saline 98 % of control | dose: 24.0 mg/kg/injection, schedule: Q04DX003 (ip), vehicle: saline 98 % of control

CN(C)c1c(F)c(F)c(N=Nc2ccccc2)c(F)c1F
inactive: dose: 100.0 mg/kg/injection, schedule: Q01DX001 (ip), vehicle: carboxymethylcellulose (CMC) 98 % of control | dose: 200.0 mg/kg/injection, schedule: Q01DX001 (ip), vehicle: carboxymethylcellulose (CMC) 114 % of control | dose: 400.0 mg/kg/injection, schedule: Q01DX001 (ip), vehicle: carboxymethylcellulose (CMC) 98 % of control

CCOCCCCO
inactive: [2] 96 % of control | [4] 92 % of control | [6] 94 % of control

O=C(c1ccccn1)C12CC3CC(CC(C3)C1)C2
inactive: [21] 97 % of control | [22] 98 % of control | [23] 101 % of control

CC(C)(C)OC(=O)NC(CC(N)=O)C(=O)ON1C(=O)CCC1=O (stereo not given)
inactive: [20] 95 % of control | [1] 99 % of control | [2] 86 % of control | dose: 100.0 mg/kg/injection, schedule: Q04DX002 (ip), vehicle: saline 108 % of control | [4] 94 % of control and 99 % of control | dose: 200.0 mg/kg/injection, schedule: Q04DX002 (ip), vehicle: saline 86 % of control | [6] 105 % of control | dose: 400.0 mg/kg/injection, schedule: Q04DX002 (ip), vehicle: saline 105 % of control

Nc1nc(N)c2c(n1)SCC(/C=N/O)=N2
inactive: [24] 108 % of control | [25] 95 % of control | dose: 400.0 mg/kg/injection, schedule: Q01DX001 (ip), vehicle: Klucel (hydroxypropylcellulose) (HPC) 97 % of control

C(=NCC1CCC(CN=Cc2ccco2)CC1)c1ccco1 (stereo not given)
inactive: [8] 94 % of control | [21] 109 % of control | [9] 98 % of control | [22] 102 % of control | [10] 100 % of control | [23] 106 % of control

OCCCNc1nc2cc(Cl)ccc2c2ccc(Cl)cc12
inactive: [14] 90 % of control | [27] 88 % of control | [28] 97 % of control | [29] 103 % of control

Cc1cc(N)c(C)c(CC#N)c1
inactive: [1] 97 % of control | [2] 118 % of control | [4] 90 % of control

CN(C)c1ccc2c(c1)Cc1cc(N=C3C=CC(=O)O3)ccc1-2
inactive: [20] 100 % of control | dose: 25.0 mg/kg/injection, schedule: Q04DX003 (ip), vehicle: acetone 95 % of control | [1] 97 % of control | dose: 50.0 mg/kg/injection, schedule: Q04DX003 (ip), vehicle: acetone 92 % of control | [26] 89 % of control | [2] 94 % of control | dose: 100.0 mg/kg/injection, schedule: Q04DX003 (ip), vehicle: acetone 88 % of control

CCCCCC1CCC(O)CC1 (stereo not given)
inactive: [14] 95 % of control | [27] 106 % of control | [15] 90 % of control | [28] 111 % of control | [16] 105 % of control | [29] 103 % of control

CCOC(=O)C1C(=O)CC(=O)C(C(=O)OCC)C1C1CC=CCC1 (stereo not given)
inactive: [17] 91 % of control | [18] 94 % of control | [19] 94 % of control

Reference: PubChem BioAssay AID248 (DTP/NCI, 2004)
